Tests used:
T78-1/T79-A3 = test: TE50 is termed as Bystander effect evaluated in T78-1 and T79-A3 cell lines; assay type: functional, Cricetulus griseus; design: unit not given beside the values
T78-1 = test: Cytotoxicity in T78-1 (NR-negative) cell lines; assay type: functional, cell-based; settings: Cricetulus griseus
[1] = target: T1, Modulator of drug activity A (Escherichia coli O157:H7) (UniProt Q8X6S1); test: IC50 ratio for NR-positive and NR-negative cell lines; assay type: functional
T1 sequence (whole entry): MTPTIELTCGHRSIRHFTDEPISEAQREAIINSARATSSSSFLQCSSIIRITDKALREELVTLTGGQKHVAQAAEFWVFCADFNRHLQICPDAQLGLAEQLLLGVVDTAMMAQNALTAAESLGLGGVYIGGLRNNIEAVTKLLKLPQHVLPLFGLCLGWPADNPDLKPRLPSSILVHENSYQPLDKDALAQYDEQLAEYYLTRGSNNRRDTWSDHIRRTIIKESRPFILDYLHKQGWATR

In the case of `NC(=O)c1cc(N(CCI)CCI)c([N+](=O)[O-])cc1[N+](=O)[O-]`, the TE50 (T78-1/T79-A3) is reported as 0.3, the IC50 (T78-1) is reported as 71 µM and the Ratio [1] is reported as 494.
With `NC(=O)c1cc(N(CCCl)CCCl)c([N+](=O)[O-])cc1[N+](=O)[O-]` the TE50 (T78-1/T79-A3) was 3.7, the IC50 (T78-1) was 895 µM and the Ratio [1] was 63.
`NC(=O)c1cc([N+](=O)[O-])cc([N+](=O)[O-])c1N(CCI)CCI` gave a TE50 (T78-1/T79-A3) of 0.4 and an IC50 (T78-1) of 58 µM.
Molecule `O=C(NCC(O)CO)c1cc(N(CCI)CCI)c([N+](=O)[O-])cc1[N+](=O)[O-]` (stereo not drawn) has a TE50 (T78-1/T79-A3) of 0.45 and an IC50 (T78-1) of 793 µM.
`NC(=O)c1cc(N(CCBr)CCBr)c([N+](=O)[O-])cc1[N+](=O)[O-]` gave a TE50 (T78-1/T79-A3) of 0.1, an IC50 (T78-1) of 633 µM and a Ratio [1] of 2530.
`NC(=O)c1cc(N2CC2)c([N+](=O)[O-])cc1[N+](=O)[O-]` [TRETAZICAR] gave a TE50 (T78-1/T79-A3) of 1 and an IC50 (T78-1) of 158 µM.
`CS(=O)(=O)CCN(CCS(C)(=O)=O)c1cc(C(N)=O)c([N+](=O)[O-])cc1[N+](=O)[O-]` was tested, and the IC50 (T78-1) was > 1000 µM.
Work on `CN(C)CCNC(=O)c1c([N+](=O)[O-])ccc(N(CCCl)CCCl)c1[N+](=O)[O-]` yielded an IC50 (T78-1) of 722 µM and a Ratio [1] of 0.8.
`O=C(NCC(O)CO)c1cc([N+](=O)[O-])cc([N+](=O)[O-])c1N(CCI)CCI` (stereo not drawn) was tested, and the TE50 (T78-1/T79-A3) was 7, the IC50 (T78-1) was 86 µM and the Ratio [1] was 21.5.
With `NC(=O)c1c([N+](=O)[O-])ccc(N(CCCl)CCCl)c1[N+](=O)[O-]` the IC50 (T78-1) was > 1000 µM.
Molecule `O=C(NCC(O)CO)c1cc([N+](=O)[O-])cc([N+](=O)[O-])c1N(CCCl)CCCl` (stereo not drawn) has a TE50 (T78-1/T79-A3) of 12 and an IC50 (T78-1) of 919 µM.
For `NC(=O)c1cc([N+](=O)[O-])cc([N+](=O)[O-])c1N(CCCl)CCCl`, the IC50 (T78-1) was > 1000 µM and the Ratio [1] was > 133.
In the case of `CS(=O)(=O)CCN(CCCl)c1cc(C(N)=O)c([N+](=O)[O-])cc1[N+](=O)[O-]`, the IC50 (T78-1) is reported as > 1000 µM.
Work on `NC(=O)c1cc([N+](=O)[O-])cc([N+](=O)[O-])c1N(CCBr)CCBr` yielded a TE50 (T78-1/T79-A3) of 0.22 and an IC50 (T78-1) of 17.5 µM.
`CS(=O)(=O)c1cc([N+](=O)[O-])c(C(N)=O)cc1N(CCCl)CCCl` was tested, and the IC50 (T78-1) was > 1000 µM and the Ratio [1] was > 17.
`O=C(NCC(O)CO)c1cc(N(CCCl)CCCl)c([N+](=O)[O-])cc1[N+](=O)[O-]` (stereo not drawn) was tested, and the IC50 (T78-1) was > 5000 µM and the Ratio [1] was > 55.
